Laboratory results reported in PubChem BioAssay AID179 (DTP/NCI, 2004).
Active and inactive are the calls of the source.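 The calls were made as follows: active = compounds giving half or more protection of infected cells from virus-caused growth loss, again on retest; inactive = the rest.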

System: CEM cells HIV-1 protection, formazan growth assay
Test: NCI AIDS Antiviral Assay
Settings: for IC50: measured here: growth of uninfected CEM cells
Procedure, shortened: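 Screen of anti-HIV-1 activity in human CEM cells using a formazan-based growth measurement at five drug concentrations. Hits with 50% or greater protection were repeated, and confirmation required reproducible complete protection.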

Row | Structure (SMILES) | EC50 [µM] | IC50 [µM] | outcome
1 | CCC(C)C(NC(=O)C(CCCCN)NC(=O)CNC(=O)C(NC(=O)C(NC(=O)C(NC(=O)C(Cc1ccccc1)NC(=O)C(C)NC(=O)C(CCCNC(=N)N)NC(=O)CNC(=O)C1CCCN1C(=O)CNC(=O)C(CCCNC(=N)N)NC(=O)C(CCC(N)=O)NC(=O)C(NC(=O)C(CCCNC(=N)N)NC(=O)C(NC(=O)C(COC1OC(CO)C(O)C(O)C1NC(C)=O)NC(=O)C(CCCCN)NC(=O)C(CCCNC(=N)N)NC(=O)C(NC(=O)C(CC(N)=O)NC(=O)C(N)CC(N)=O)C(C)O)C(C)CC)C(C)CC)C(C)C)C(C)OC1OC(CO)C(O)C(O)C1NC(C)=O)C(C)CC)C(=O)NCOC#N (stereo not drawn) | > 27.5 | > 27.5 | –
2 | [N-]=[N+]=CC(=O)OC1Cc2ccccc2C1 | 182 | > 200 | –
3 | Cc1c(N)c(=O)oc2cc3occc(=O)c3cc12 | > 20.4 | 13.5 | –
4 | Cc1cc2c(=O)cc(-c3ccc(C(F)(F)F)cc3)oc2c(C(=O)O)c1C | – | – | inactive
5 | CCCCCCCCCCCCCCCCOP(=O)([O-])OCC[N+](C)(C)C | > 309 | 2.45 | –
6 | CCc1cc(Cc2ccc(C)c(NC(=O)C(=O)C3C(=O)NC(=O)NC3=O)c2CC)cc(C)c1NC(=O)C(=O)C1C(=O)NC(=O)NC1=O | > 77.6 | > 77.6 | –
7 | COc1ccc(-c2cc3cc(Cl)cc(Cl)c3oc2=O)cc1OC | > 200 | 186 | –
8 | Cc1ccc(S(=O)(=O)NC(=O)NN2CCCCCC2)cc1 | > 200 | > 200 | –
9 | Nc1ncnc2c1ncn2CC(=O)NCCCO | > 200 | > 200 | –
10 | O=[N+]([O-])c1nccn1CC(O)CF (stereo not drawn) | > 468 | > 468 | –
11 | O=C1c2ccccc2C(C2c3ccccc3C(=O)c3ccccc32)c2ccccc21 | – | – | inactive
12 | CN(C)Cc1cc(C(=O)/C=C/c2c(Cl)cccc2Cl)cc(CN(C)C)c1O | > 200 | 2.69 | –
13 | O=c1[nH][nH]c(=O)n1Cc1cccc(Cn2c(=O)[nH][nH]c2=O)c1 | > 200 | > 200 | –
14 | N#Cc1c(-c2ccccc2)[nH]c(=O)n(C2OC(CO)C(O)C(O)C2O)c1=O (stereo not drawn) | > 200 | > 200 | inactive
15 | Cc1ccc(S(=O)(=O)C2=c3nc4ccccc4cc3=C3C(=O)c4ccccc4C(=O)C32)cc1 (stereo not drawn) | > 21.9 | > 21.9 | –
16 | CC(C(N)=O)N(C)C(=O)c1cnc2ccccc2c1 (stereo not drawn) | – | – | inactive
17 | CN(C)CCOc1ccc(-c2c(Oc3ccc(Cl)cc3)c(=O)oc3ccccc23)cc1 | > 200 | 8.13 | –
18 | COC1=C(OC)C(=O)c2cc(C)c(=O)c(C)cc2C1=O | > 13.2 | 3.98 | –
19 | CC(C)N(CC(OC(=O)OC(C)(C)C)c1cc(OCc2ccccc2)c(OCc2ccccc2)cc1[N+](=O)[O-])C(=O)OC(C)(C)C (stereo not drawn) | > 100 | 30.2 | –
20 | C=CC1C2=C(C(=O)NCC2)C2OC(O)C3=C(CCNC3=O)C2C1C (stereo not drawn) | – | – | inactive
21 | CC(C)(C)OC(=O)NC(Cc1cc(C(C)(C)C)c(O)c(C(C)(C)C)c1)C(=O)O (stereo not drawn) | > 200 | 61.7 | –

Row | Structure (SMILES) | EC50 [µM] | IC50 [µM] | outcome
22 | COC1/C=C\C=C(/C)C(=O)NC2=CC(=O)C=C(C2=O)C(OC)C(C)CC(OC)C(OC)C(C)/C=C(/C)C1OC(N)=O (stereo not drawn) | > 63.1 | 0.407 | –
23 | CCCN(CCC)C1CCc2c(ccc3cc[nH]c23)C1 (stereo not drawn) | – | – | inactive
24 | COc1cc2c3c(c1)ncn3C(=O)C(c1ccccc1)S2 (stereo not drawn) | > 200 | 87.1 | –
25 | COc1cc(OC)c2nc(C)c3c(c2c1)SCC3 | > 200 | > 200 | –
26 | Nc1ccn(C2OC(CO)C(F)C2F)c(=O)n1 (stereo not drawn) | > 501 | > 501 | –
27 | CC1(COc2ccccc2OCC2(C)CO2)CO1 (stereo not drawn) | > 1000 | 16.6 | –
28 | O=C(N/N=C/c1ccc(Cl)cc1Cl)c1ccccc1SSc1ccccc1C(=O)N/N=C/c1ccc(Cl)cc1Cl | 38.9 | 178 | –
29 | O=NCC(=O)OCc1ccccc1 | > 200 | > 200 | –
30 | Cn1cnc2c1S(=O)(=O)NC(=S)N2 | > 1150 | > 1150 | –
31 | c1ccc(-c2sc(-c3ccccc3)c3c2[C@H](c2ccccc2)S[C@H]3c2ccccc2)cc1 | – | – | inactive
32 | O=C(CC(O)CCc1ccc(O)c(O)c1)O[C@H]1Cc2c(O)cc(O)cc2O[C@H]1c1ccc(O)c(O)c1 (stereo partly drawn) | > 200 | 14.1 | –
33 | O=Cc1ccc(C=O)n1C1CCOC1=O (stereo not drawn) | – | – | inactive
34 | COC(=O)C(=O)C(C(=O)C(=O)Nc1cccc(C(C)=O)c1)c1nc2ccccc2[nH]c1=O (stereo not drawn) | > 575 | 302 | –
35 | COc1ccc2c(c1)C(N)=C(c1ccccc1OC)C2=O | > 200 | 120 | –
36 | CCN(CC)CC/C=C1\c2ccccc2Sc2ccc(Cl)cc21 | – | – | inactive
37 | C=C(CC)C(=O)c1ccc(OCC(=O)O)c(Cl)c1Cl | > 200 | 43.7 | inactive
38 | CCOC(=O)N1C2C=CC(C2)N1C(=O)Nc1ccc(Cl)cc1 (stereo not drawn) | > 200 | 170 | –
39 | Cn1c(=O)c(C(c2ccc([N+](=O)[O-])cc2)c2c(O)c3ccccc3n(C)c2=O)cc2ccccc21 (stereo not drawn) | > 4.27 | > 4.27 | –
40 | O=C(Nc1ccccc1)c1nn(-c2cc(S(=O)(=O)O)c([N+](=O)[O-])cc2Cl)[n+](-c2cc(S(=O)(=O)[O-])c([N+](=O)[O-])cc2Cl)n1 | 64.6 | > 100 | –
41 | N#CCCN(CCC#N)c1ccc(/C=C2\N=C(c3ccccc3)N(c3ccc(F)cc3)C2=O)cc1 | > 200 | > 200 | –
42 | CC1=CC(C)(C)N=C2SC(c3ccc(Cl)cc3)=NN12 | > 24.5 | 20 | –

Row | Structure (SMILES) | EC50 [µM] | IC50 [µM] | outcome
43 | CCCCCCNC(=O)C1=C(C)NC(C)=C(C(=O)NCCCCCC)C1 | – | 89.1 | inactive
44 | CC(=O)c1ccc2c(c1)CC1(C2)Cc2ccc3c(c2C1=O)CCC3 (stereo not drawn) | > 200 | 33.1 | –
45 | CCC1(CC)COP(=S)(S)OC1 | > 200 | > 200 | –
46 | CC(NC(=O)OC(C)(C)C)C(=O)NC(Cc1ccccc1)C(=O)NCC(=O)Oc1c(Cl)c(Cl)c(Cl)c(Cl)c1Cl (stereo not drawn) | > 200 | 4.27 | –
47 | CCN1C(=NCCO)NS(=O)(=O)c2ccccc21 | > 200 | > 200 | –
48 | COc1cccc(NC(=O)CC(=O)Nc2cccc(OC)c2)c1 | > 200 | > 200 | –
49 | Cc1cn(C2CC(NC(=O)N(C)O)C(CO[Si](C)(C)C(C)(C)C)O2)c(=O)[nH]c1=O (stereo not drawn) | > 200 | 107 | –
50 | O=C(O)C1CC1 | – | – | inactive
51 | COc1ccc(-c2cc(C(=O)Nc3ccc(C)c(C)c3)nc(NC#N)n2)cc1 | > 339 | > 339 | –
52 | N#Cc1c2n(c(=S)n(-c3ccccc3)c1=O)CCCCCCC2 | > 200 | 162 | –
53 | C1CCN2CC34CC(CC5CCCN(C6CCCC3N6)C54)C2C1 (stereo not drawn) | > 309 | > 309 | –
54 | NS(=O)(=O)c1ccc(Nc2c3ccc(Cl)cc3nc3ncccc23)cc1 | – | – | inactive
55 | O=C(Nc1cc(Cl)c(Cl)cc1Cl)C(=O)C(C(=O)c1ccccc1)C1OC(=O)c2ccccc21 (stereo not drawn) | – | – | inactive
56 | Cc1cc(NS(=O)(=O)c2ccc(NC(NC(=O)C(C(F)(F)F)C(F)(F)F)(C(F)(F)F)C(F)(F)F)cc2)no1 | > 200 | > 200 | –
57 | O=C(Nc1cccnc1)c1ccccc1[Se][Se]c1ccccc1C(=O)Nc1cccnc1 | 3.24 | 6.92 | –
58 | N#C/C(=C\c1ccc2[nH]ccc2c1)C(=O)NCCCCNC(=O)/C(C#N)=C/c1ccc2[nH]ccc2c1 | > 7.94 | > 7.94 | –
59 | COc1ccc(CCCNC(=O)Cc2cc(OC)c(OC)cc2CO)cc1OC | > 200 | 17.8 | –
60 | Nc1ccc2oc(=O)c(C(=O)O)cc2c1 | > 363 | 162 | –
61 | O=c1[nH]nc(-c2ccccc2)n1/N=C/c1cccnc1 | > 200 | 61.7 | –
62 | O=C(Cc1ccccc1)NN1C(=O)C(Cl)C1c1ccc(Cl)cc1 (stereo not drawn) | > 102 | > 102 | –
63 | C=CCC1(O)C(=O)OC2C(O)COC21O (stereo not drawn) | > 200 | > 200 | –

Row | Structure (SMILES) | EC50 [µM] | IC50 [µM] | outcome
64 | COC(=O)C1(C(=O)OC)C2(CCCC2)C1(C(=O)OC)C(=O)OC | > 200 | > 200 | –
65 | Cc1c(N2CCN(C)CC2)nc2ccc(Cl)cc2c1-c1ccccc1 | > 14.8 | > 14.8 | –
66 | CCOC(=O)C1N(S(=O)(=O)c2ccc(C)cc2)CCC12C(c1ccc(OC)c(OC)c1)=Nc1ccccc12 (stereo not drawn) | – | – | inactive
67 | C/C(=N/NC(=S)Nc1ccc(Cl)cc1)c1cccc(/C(C)=N\NC(=S)Nc2ccc(Cl)cc2)n1 | > 200 | 6.76 | –
68 | CN1CCN(c2ccc(-n3cc(C(=O)O)c(=O)c4cc(F)c(N5CCN(C)CC5)cc43)nc2)CC1 | > 200 | 115 | –
69 | COC1/C=C/OC2(C)Oc3c(C)c(OC(C)=O)c4c(c3C2=O)C(=O)C=C(NC(=O)/C(C)=C\C=C\C(C)C(O)C(C)C(O)C(C)C(OC(C)=O)C1C)C4=O (stereo not drawn) | > 200 | 5.89 | –
70 | Cc1cccc(NC(=O)CSc2nnc(-c3ccc(N=Cc4ccc(Cl)cc4)cc3)o2)c1 | > 21.4 | > 21.4 | –
71 | O=C(/C=C\c1ccc(O)c(O)c1)OC1C(O)CC(OC(=O)/C=C/c2ccc(O)c(O)c2)(C(=O)O)CC1O (stereo not drawn) | > 200 | 30.2 | –
72 | CCOP(=O)(OCC)O/C(C)=C\C(=O)OC | > 501 | > 501 | –
73 | CCOC(=O)C(CCCl)C(=O)OCC | > 200 | > 200 | –
74 | O=C(C1OC1c1cccc([N+](=O)[O-])c1)C12CC3CC(CC(C3)C1)C2 (stereo not drawn) | > 200 | 3.47 | –
75 | CC(=O)C1=C(C)NC(C)=C(C(C)=O)C1c1cccc([N+](=O)[O-])c1 | 182 | > 200 | –
76 | O=c1[nH]c(=O)n(C2CC(O)C(CO)O2)cc1S (stereo not drawn) | – | – | inactive
77 | Cc1ccc2c(c1)nc(-c1ccccn1)n2CCc1ccccn1 | > 347 | 83.2 | –
78 | O=C1C=C[C@@]23C=Cc4ccccc4C2CC(O)C1C3 (stereo partly drawn) | > 245 | 135 | –
79 | O=c1ccn(CC2(CO)CCC2)c(=O)[nH]1 | > 200 | > 200 | –
80 | S=C(Nc1ccccc1)Nc1ccccc1SC(/C=C/NNC1=NC(c2ccccc2)C(c2ccccc2)=NN1)c1ccccc1 (stereo not drawn) | > 15.5 | > 15.5 | –
81 | C=C1CCC[C@@H]2[C@@](C)(Cc3cc(O)ccc3O)C(C)CC[C@]12C (stereo partly drawn) | > 60.3 | 0.708 | –
82 | Nc1c(Cl)cc(/C=C2\C=Cc3ccccc32)cc1Cl | > 18.2 | > 18.2 | –
